Test results reported in patent US9051240B2, “Substituted 2-[2-(phenyl) ethylamino] alkaneamide derivatives and their use as sodium and/or calcium channel modulators” (Newron Pharmaceuticals S.P.A., priority 2007, dated 2015).

Tests used:
mice [1] = experiment: Amphetamine and chlordiazepoxide-induced hyperlocomotion in mice; assay type: in vivo; conditions: 20.0 mg/Kg po
Description: In this model, mice are treated with a mixture of d-amphetamine plus an anxiolytic dose of the benzodiazepine, chlordiazepoxide (Rushton R, Steinberg H. Combined effects of chlordiazepoxide and d-amphetamine on activity of rats in an unfamiliar environment. Nature 1966; 211:1312-3; R. Arban, G. Maraia, K. Brackenborough, L. Winyard, A. Wilson, P. Gerrard, C. Large. Evaluation of the effects of lamotrigine, valproate and carbamazepine in a rodent model of mania Behavioural Brain Research, 158: 123-132). The model has been claimed to mimic some aspects of mania in bipolar disorder. Importantly, the hyperactivity induced by the mixture of d-amphetamine and chlordiazepoxide could be prevented by prior administration of the established mood stabilizer, lithium, as well as other mood stabilizers drugs (e.g. magnesium valproate and carbamazepine). […]
Amphetamine (AMP) (2.5 mg/kg) plus chlordiazepoxide hydrochloride (CDZ) (3 mg/kg/ip) were administered to male Albino Swiss mice (25-32 g) in a volume of 10 ml/kg. The locomotor activity was recorded using Opto-M3 System (Columbus Instruments) which is multi-channel activity monitor. […] The locomotor activity (ambulation and total activity count) was evaluated for 30 min. […]
Statistical analysis: the data were evaluated by an analysis of variance (ANOVA), followed, when appropriate, by individual comparison with the control using Dunnett's test.

mice [2] = experiment: Acetic acid-induced visceral pain model in mice; assay type: in vivo; conditions: 20 mg/Kg p.o.
Source text: The acetic acid-induced visceral pain model is widely used in experimental research to produce abdominal contractions (Korster R et al., Fed. Pro. (1959) 18: 412; Friese N et al., Life Sci. (1997) 60: 625-634) The model consists of intraperitoneal (i.p.) injection of an irritant that induces a syndrome called ‘writhing’, which consists of contractions of the abdomen, twisting and turning of the trunk, arching of the back and extension of the hind limbs.
Animals and procedure: Male CD1 mice weighing 25-33 g were used. Each treated group was allowed 30 min to habituate to laboratory surroundings in individual polypropylene transparent boxes. The visceral pain was scored by counting the number of writhes for 10 min after i.p. injection of 0.6% acetic acid (10 ml/kg of body weight). The number of writhes after acetic acid administration were evaluated. Both complete body stretching (complete writhe) or partial stretching with a clear contracting of the abdomen (partial writhe) were counted.
Separate groups of 10 mice each were administered orally with vehicle (10 ml/kg), or different doses of the tested compound dissolved in vehicle (10 ml/kg), 5 min before acetic acid injection. Data are expressed as the mean number of writhes during the 10 min observation period.

CCCCOc1cccc(CCNCC(=O)N(C)C)c1.Cl [2-[2-(3-Butoxyphenyl)-ethylamino]-N,N-dimethylacetamide hydrochloride]
hyperactivity (ambulation over 30 min) induced by amphetamine alone (mice [1]; amphetamine 2.5 mg/kg i.p.): reduced hyperactivity | hyperactivity (ambulation over 30 min) induced by the mixture of amphetamine and chlordiazepoxide (mice [1]; amphetamine 2.5 mg/kg i.p. + chlordiazepoxide 3.0 mg/Kg ip): reduced hyperactivity | number of writhes, significance vs. vehicle (mice [2]): p<0.01 vs. vehicle
